We go through 19 compounds from EP0799614A1, “REMEDY FOR ISCHEMIC DISEASES” (CHUGAI SEIYAKU KABUSHIKI KAISHA, priority 1994, dated 1996).

Where two headings read alike, the source gives them in different places.

In experiment [1] the test system is Isolated ventricular myocytes. Put plainly: Inhibitory action on calcium overload in vitro, Method B: veratridine-treated myocytes. In kind it is cell-based, male Sprague-Dawley rat. Conditions: veratridine 50 µg/ml, read-out: Concentration at Which Cells Survived Almost Completely. On the procedure: (§1) Isolated ventricular myocytes were prepared from the heart of male Sprague-Dawley rat weighing 300 to 500 g, using an enzyme-perfusion method. […]
The efficacy was evaluated in the same manner as in Method A, except for using 50 µg/ml of veratridine in place of veratrine (100 µg/ml).

A further experiment concerns thoracic aorta. Briefly: Vasorelaxing action in vitro: relaxation of 30 mM K+ contraction of aortic rings. Type of experiment: cell-based, Sprague-Dawley (Crj) male rat. Conditions: contraction at 30 mM K+ taken as 100%. On the procedure: The thoracic aorta was excised from a Sprague-Dawley (Crj) male rat weighing between 350 and 550 g, and dissected free from surrounding connective tissue. The vessel was cut into a ring having a width of 2 to 3 mm. The resulting preparation was mounted for isometric tension recording in an organ bath filled with 10 ml of a Krebs-Henseleit solution (K-H solution, pH 7.4, 37°C), which was bubbled with 95% 02/5% CO2. Isometric tension changes were monitored with an isometric tranducer (TB-611T, manufactured by Nihon Kohden Corp.). Before starting the experiment, the preparation was given a stretched tension of 2 g and allowed to equilibrate for 30 minutes (the K-H solution was exchanged for a fresh one every 15 minutes). At first, the preparation was precontracted by changing the solution in the bath to one containing 30 mM K^+. After the contraction was maintained for 20 minutes, the preparation was washed with K-H solution. Sixty minutes thereafter (the K-H solution was exchanged with a fresh one every 20 minutes), contraction was again induced in the same manner as described above. […]

Experiment [2] relates to Isolated ventricular myocytes. Put plainly: Inhibitory action on calcium overload in vitro, Method A: veratrine-treated myocytes, survival rate. Type of experiment: cell-based, male Sprague-Dawley rat. More on the design: key: ++: The cells survived almost completely at 10^-7 M.; +: The cells survived almost completely at 10^-6 M.; The cells died almost completely at 10 M^-6 M. The note with it: 30 minutes pretreatment, veratrine 100 µg/ml, observed five minutes later. As for the experimental part:
as §1

For a further experiment, the system named is Male Sprague-Dawley rats. Briefly: Preventive effect on ventricular arrhythmia caused by occlusion and reperfusion of the coronary artery. The note with it: Fig. 4; 0.5, 1 and 3 mg/kg via femoral vein 10 min before occlusion; compared with diltiazem 1 and 3 mg/kg. Type of experiment: in vivo. As for the experimental part:
Male Sprague-Dawley rats (450 - 600 g) were anethetized with pentobarbital, subjected to thoracotomy under artificial respiration, had the arterior descending branch of the left coronary artery occluded with a silk ligature for 5 min, had the occlusion removed to permit reperfusion and examined for 10 min. A standard limb lead II electrocardiogram was recorded to check for the occurrence of ventricular arrythmia. […] The parethesized numeral at the bottom of each bar in Fig. 4 represents the number of cases.

For the next experiment, the system named is rabbit LDL. Put plainly: Inhibitory action on lipid peroxidation in vitro, Method A: oxidation of LDL by soybean lipoxygenase, fluorescence of LDL fraction. Type of experiment: biochemical. Conditions: fluorescence intensity of oxidized LDL fraction, SLO 40 µg/ml, 37°C, 24 hours. On the procedure:
A test compound was added to rabbit LDL prepared according to the method of Havel, et al. (Havel RJ et al., J. Clin. Invest., 34, 1345 (1955)), and then a soybean lipoxygenase type-IS (SLO) was added to a final concentration of 40 µg/ml. Oxidation of LDL was carried out at 37°C in a CO2 incubator for 24 hours. The oxidized LDL solution was separated by gel-permeation chromatography, and the fluorescence intensity of the LDL fraction was measured at an excitation wavelength of 360 nm and an emission wavelength of 430 nm.

In experiment [3] the test system is coronary preparations from dogs. Briefly: Antispasmodic action in vitro: 3,4-diaminopyridine-induced rhythmic contractions. Type of experiment: cell-based. The note with it: Fig. 2; 3,4-DAP 10 mM; compared with diltiazem. On the procedure:
Following repeated replacements of PSS in an organ bath at 15-min intervals, the tension on each of the coronary preparations from dogs stabilized at 2 g; then, PSS was replaced by a 30 mM K^+ PSS to contract the preparations. The 30mM K^+ PSS was replaced by normal PSS in an organ bath to relax the preparations, followed by replacements with PSS at 20-min intervals to stabilize the tension for about 1 h, followed by the addition of 3,4-DAP (10 mM) to induce rhythmic contractions. […] The drug concentration allowing for complete suppression of the amplitude of the 3,4-DAP-induced rhythmic contractions may be designated "elimination dose".

For experiment [4], the system named is Thoracic aorta preparations from rats. Put plainly: Vasorelaxing action in vitro: effect on CaCl2-induced contractions. Type of experiment: cell-based. The note with it: Fig. 1; CaCl2 0.01 - 10 mM in 60 mM K+ PSS; compared with diltiazem. As for the experimental part: Thoracic aorta preparations from rats were stabilized in normal physiological salt solution (PSS) for at least 30 min, contracted with 60 mM KCl and, thereafter, relaxed with normal PSS. Twenty minutes later, the preparations were exposed to Ca^2+ -free 60 mM K^+ PSS (containing 0.1 mM EGTA) for 20 min, then to nominally Ca^2+ -free 60 mM K^+ PSS which is free of EGTA for 20 min, followed by cumulative application of CaCl2 (0.01 - 10 mM) to construct a dose-response curve. […] The response was converted to percent contraction, with the contraction caused by 10 mM CaCl2 being taken as 100%. The data in Fig. 1 are expressed by the mean of 5 cases ± standard error.

As for `CC1SC(c2cc(C(C)(C)C)c(O)c(C(C)(C)C)c2)N(CCCN(C)CCOc2ccc3c(c2)OCO3)C1=O` (single isomer, unassigned; (-)) [Compound 75, (-)-2,5-Cis-2-[3,5-di-tert-butyl-4-hydroxyphenyl)-3-[3-[N-methyl-N-[2-(3,4-methylenedioxyphenoxy)ethyl]amino]propyl]-5-methyl-1,3-thiazolidin-4-one], in experiment [1], the minimal effective concentration is on record as 0.32 µM. For the same compound, the IC50 (as a rule, the concentration needed to halve the response being measured) in the experiment with thoracic aorta was 22 nM.
Turning to `CN(CCCCN1C(=O)CSC1c1cc(C(C)(C)C)c(O)c(C(C)(C)C)c1)CCOc1ccc2c(c1)OCO2` (centres unmarked) [Compound 8], the “Survival Rate of Cells” value in experiment [2] is on record as “++”. Further, in the experiment with thoracic aorta (Rattus norvegicus), the IC50 was 170 nM.
`COc1ccc(CN(C)CCCN2C(=O)CSC2c2cc(C(C)(C)C)c(O)c(C(C)(C)C)c2)cc1OC` (centres unmarked) [Compound 19]: the midpoint of inhibition with thoracic aorta (Rattus norvegicus), the IC50, lay at 110 nM.
Take `CN(CCCN1C(=O)CSC1c1cc(C(C)(C)C)c(O)c(C(C)(C)C)c1)CCOc1ccc2c(c1)OCO2` (centres unmarked) [Compound 26, 2-(3,5-Di-tert-butyl-4-hydroxyphenyl)-3-[3-[N-methyl-N-[2-(3,4-methylenedioxyphenoxy)ethyl]amino]propyl]-1,3-thiazolidin-4-one]: the “Survival Rate of Cells” value in experiment [2] is given as “++”. Moreover, the incidence of arrhythmia entry with Male Sprague-Dawley rats is on record as “by far superior effect to diltiazem in decreasing the incidnece of arrhythmia”. Inhibition in the experiment with thoracic aorta was half-maximal at 37 nM (IC50).
With `COc1c(C(C)(C)C)cc(C2SCC(=O)N2CCCN(C)CCOc2ccc3c(c2)OCO3)cc1C(C)(C)C` (centres unmarked) [Compound 11], in the experiment with thoracic aorta (Rattus norvegicus), the IC50 worked out at 21 nM.
On to `COc1ccc(CCN(C)CCCN2C(=O)CSC2c2cc(C(C)(C)C)c(O)c(C(C)(C)C)c2)cc1OC` (centres unmarked) [Compound 20], for which, in experiment [2], the “Survival Rate of Cells” value is on record as “+”. The “Percent (%) of Control” value is listed as 0.6% in the experiment on rabbit LDL (5 x 10^-6 M) and 8.7% in the experiment with rabbit LDL (5 x 10^-7 M, 0.5 µM).
Compound `CC(C)c1cc(C2SCC(=O)N2CCCN(C)CCOc2ccc3c(c2)OCO3)cc(C(C)C)c1O` (centres unmarked) [Compound 1, 2-(3,5-Diisopropyl-4-hydroxyphenyl)-3-[3-[N-methyl-N-[2-(3,4-methylenedioxyphenoxy)ethyl]amino]propyl]-1,3-thiazolidin-4-one] showed an IC50 in the experiment with thoracic aorta (Rattus norvegicus) of 170 nM.
Compound `CC1SC(c2cc(C(C)(C)C)c(O)c(C(C)(C)C)c2)N(CCCN(C)CCOc2ccc3c(c2)OCO3)C1=O` (stereo not drawn) [Compound 72, 2,5-Trans-2-(3,5-di-tert-butyl-4-hydroxyphenyl)-3-[3-[N-methyl-[2-(3,4-methylenedioxyphenoxy)ethyl]amino]propyl]-5-methyl-1,3-thiazolidin-4-one] came in with an IC50 with thoracic aorta (Rattus norvegicus) of 98 nM.
In the experiment on thoracic aorta, `CC1SC(c2cc(C(C)(C)C)c(O)c(C(C)(C)C)c2)N(CCCN(C)CCOc2ccc3c(c2)OCO3)C1=O` (single isomer, unassigned; (+)) [Compound 74, (+)-2,5-Cis-2-[3,5-di-tert-butyl-4-hydroxyphenyl)-3-[3-[N-methyl-N-[2-(3,4-methylenedioxyphenoxy)ethyl]amino]propyl]-5-methyl-1,3-thiazolidin-4-one] gave an IC50 of 141 nM.
For the compound `CN(CCCN1C(=O)C(CCO)SC1c1cc(C(C)(C)C)c(O)c(C(C)(C)C)c1)CCOc1ccc2c(c1)OCO2` (centres unmarked) [Compound 49, 2-(3,5-Di-tert-butyl-4-hydroxyphenyl)-3-[3-[N-methyl-N-[2-(3,4-methylenedioxyphenoxy)ethyl]amino]propyl]-5-(2-hydroxyethyl)-1,3-thiazolidin-4-one], the IC50 with thoracic aorta (Rattus norvegicus) came to 23 nM.
On to `COc1ccc([C@@H]2Sc3ccccc3N(CCN(C)C)C(=O)[C@@H]2OC(C)=O)cc1` [Diltiazem, reference compound], for which, in experiment [2], the “Survival Rate of Cells” value is listed as “-”.
With `CCN(CCCN1C(=O)CSC1c1cc(C(C)(C)C)c(O)c(C(C)(C)C)c1)CCOc1ccc2c(c1)OCO2` (centres unmarked) [Compound 12], the “Survival Rate of Cells” value in experiment [2] was “++”. The “Percent (%) of Control” value in the experiment with rabbit LDL (5 x 10^-6 M) is 6.4%. The compound also displayed an IC50 in the experiment on thoracic aorta (Rattus norvegicus) of 63 nM.
As for `CN(CCCN1C(=O)CSC1c1cc(C(C)(C)C)c(O)c(C(C)(C)C)c1)CCOc1ccc2c(c1)OCO2` (single isomer, unassigned; (-)) [Compound 71, (-)-2-(3,5-Di-tert-butyl-4-hydroxyphenyl)-3-[3-[N-methyl-N-[2-(3,4-methylenedioxyphenoxy)ethyl]amino]propyl]-1,3-thiazolidin-4-one], in experiment [3], the “suppression of 3,4-DAP-induced rhythmic contractions” value was “capable of suppressing the 3,4-DAP-induced rhythmic contractions at a lower concentration than diltiazem”. In experiment [1], the minimal effective concentration was determined as 0.32 µM. Moreover, the “Percent (%) of Control” value in the experiment on rabbit LDL (5 x 10^-6 M, 5 µM) is 2.8%. Further, the IC50 with thoracic aorta came out at 27 nM. In experiment [4], the “inhibitory action against the contraction caused by CaCl2” value is “need be applied in a by far smaller amount than diltiazem to exhibit an outstanding inhibitory action”.
With `CC1SC(c2cc(C(C)(C)C)c(O)c(C(C)(C)C)c2)N(CCCN(C)CCOc2ccc3c(c2)OCO3)C1=O` (centres unmarked) [Compound 41, 2-(3,5-Di-tert-butyl-4-hydroxyphenyl)-3-[3-[N-methyl-N-[2-(3,4-methylenedioxyphenoxy)ethyl]amino]propyl]-5-methyl-1,3-thiazolidin-4-one], the “Percent (%) of Control” value in the experiment on rabbit LDL (5 x 10^-6 M) is listed as 6.2%. Moreover, in the experiment on thoracic aorta, the IC50 is 56 nM.
In the case of `CN(CCCOc1ccc2c(c1)OCO2)CCCN1C(=O)CSC1c1cc(C(C)(C)C)c(O)c(C(C)(C)C)c1` (centres unmarked) [Compound 17], in the experiment on rabbit LDL (5 x 10^-6 M), the “Percent (%) of Control” value amounted to 3.9%. The IC50 with thoracic aorta (Rattus norvegicus) is 28 nM.
Turning to `CN(CCCN1C(=O)CSC1c1cc(C(C)(C)C)c(O)c(C(C)(C)C)c1)CCOc1ccc2c(c1)OCO2` (single isomer, unassigned; (+)) [Compound 70, (+)-2-(3,5-Di-tert-butyl-4-hydroxyphenyl)-3-[3-[N-methyl-N-[2-(3,4-methylenedioxyphenoxy)ethyl]amino]propyl]-1,3-thiazolidin-4-one], the minimal effective concentration in experiment [1] (Rattus norvegicus, Ventricular myocyte) amounted to 0.32 µM. The “Percent (%) of Control” value in the experiment with rabbit LDL (5 x 10^-6 M, 5 µM) turned out to be 5.1%. In the experiment with thoracic aorta, this compound showed an IC50 of 300 nM.
With `CC1SC(c2cc(C(C)(C)C)c(O)c(C(C)(C)C)c2)N(CCCN(C)CCOc2ccc3c(c2)OCO3)C1=O` (stereo not drawn) [Compound 73, 2,5-Cis-2-(3,5-di-tert-butyl-4-hydroxyphenyl)-3-[3-[N-methyl-N-[2-(3,4-methylenedioxyphenoxy)ethyl]amino]propyl]-5-methyl-1,3-thiazolidin-4-one], the minimal effective concentration in experiment [1] was 0.32 µM. The compound also came in with an IC50 with thoracic aorta of 49 nM.
As to `CN(CCCCCN1C(=O)CSC1c1cc(C(C)(C)C)c(O)c(C(C)(C)C)c1)CCOc1ccc2c(c1)OCO2` (centres unmarked) [Compound 9], in experiment [2], the “Survival Rate of Cells” value is reported as “++”. The “Percent (%) of Control” value in the experiment with rabbit LDL (5 x 10^-6 M) was determined as 5.9%. The compound further came in with an IC50 in the experiment on thoracic aorta (Rattus norvegicus) of 28 nM.
In the experiment with thoracic aorta (Rattus norvegicus), `CN(CCCN1C(=O)C(OCCO)SC1c1cc(C(C)(C)C)c(O)c(C(C)(C)C)c1)CCOc1ccc2c(c1)OCO2` (centres unmarked) [Compound 55] came in with an IC50 of 21 nM.
